Article PMC11233931, “Remodeling tumor‐associated macrophage for anti‐cancer effects by rational design of irreversible inhibition of mitogen‐activated protein kinase‐activated protein kinase 2” (MedComm, 2024)

Assays:
Assay in all cases: Eurofins kinase selectivity profile against 380 other human recombinant kinases (Table S2)
Type in all cases: biochemical
[1] = target: T1, 380 human recombinant protein kinases (Homo sapiens, UniProt Q08881); conditions: Itk(h), read-out: Inhibition rate
T1 construct: purchased Eurofins (Celle Lévescault)
T1 sequence (Q08881 1-620): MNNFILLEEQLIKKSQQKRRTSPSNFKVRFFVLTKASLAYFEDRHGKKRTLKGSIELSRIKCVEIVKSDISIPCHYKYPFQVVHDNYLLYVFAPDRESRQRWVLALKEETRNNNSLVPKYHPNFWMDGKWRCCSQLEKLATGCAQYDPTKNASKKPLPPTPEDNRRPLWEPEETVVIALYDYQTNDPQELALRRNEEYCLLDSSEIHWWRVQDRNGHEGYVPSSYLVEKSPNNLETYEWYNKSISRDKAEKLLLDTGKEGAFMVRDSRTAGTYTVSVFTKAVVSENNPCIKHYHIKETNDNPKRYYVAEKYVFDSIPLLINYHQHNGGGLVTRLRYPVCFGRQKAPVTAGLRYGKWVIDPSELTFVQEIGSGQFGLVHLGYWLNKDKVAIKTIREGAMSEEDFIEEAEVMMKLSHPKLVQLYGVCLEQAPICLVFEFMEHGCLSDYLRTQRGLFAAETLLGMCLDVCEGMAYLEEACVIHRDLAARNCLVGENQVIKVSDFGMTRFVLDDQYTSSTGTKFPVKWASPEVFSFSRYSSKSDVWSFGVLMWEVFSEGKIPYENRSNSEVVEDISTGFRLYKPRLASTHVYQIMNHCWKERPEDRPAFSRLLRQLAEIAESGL
Method in brief: (§1)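 Profiling against 380 human recombinant kinases carried out by Eurofins at various compound concentrations.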

[2] = target: T2, 380 human recombinant protein kinases (Homo sapiens, UniProt Q6DT37); conditions: MRCKγ(h), read-out: Inhibition rate
T2 construct: purchased Eurofins (Celle Lévescault)
T2 sequence (Q6DT37 whole entry): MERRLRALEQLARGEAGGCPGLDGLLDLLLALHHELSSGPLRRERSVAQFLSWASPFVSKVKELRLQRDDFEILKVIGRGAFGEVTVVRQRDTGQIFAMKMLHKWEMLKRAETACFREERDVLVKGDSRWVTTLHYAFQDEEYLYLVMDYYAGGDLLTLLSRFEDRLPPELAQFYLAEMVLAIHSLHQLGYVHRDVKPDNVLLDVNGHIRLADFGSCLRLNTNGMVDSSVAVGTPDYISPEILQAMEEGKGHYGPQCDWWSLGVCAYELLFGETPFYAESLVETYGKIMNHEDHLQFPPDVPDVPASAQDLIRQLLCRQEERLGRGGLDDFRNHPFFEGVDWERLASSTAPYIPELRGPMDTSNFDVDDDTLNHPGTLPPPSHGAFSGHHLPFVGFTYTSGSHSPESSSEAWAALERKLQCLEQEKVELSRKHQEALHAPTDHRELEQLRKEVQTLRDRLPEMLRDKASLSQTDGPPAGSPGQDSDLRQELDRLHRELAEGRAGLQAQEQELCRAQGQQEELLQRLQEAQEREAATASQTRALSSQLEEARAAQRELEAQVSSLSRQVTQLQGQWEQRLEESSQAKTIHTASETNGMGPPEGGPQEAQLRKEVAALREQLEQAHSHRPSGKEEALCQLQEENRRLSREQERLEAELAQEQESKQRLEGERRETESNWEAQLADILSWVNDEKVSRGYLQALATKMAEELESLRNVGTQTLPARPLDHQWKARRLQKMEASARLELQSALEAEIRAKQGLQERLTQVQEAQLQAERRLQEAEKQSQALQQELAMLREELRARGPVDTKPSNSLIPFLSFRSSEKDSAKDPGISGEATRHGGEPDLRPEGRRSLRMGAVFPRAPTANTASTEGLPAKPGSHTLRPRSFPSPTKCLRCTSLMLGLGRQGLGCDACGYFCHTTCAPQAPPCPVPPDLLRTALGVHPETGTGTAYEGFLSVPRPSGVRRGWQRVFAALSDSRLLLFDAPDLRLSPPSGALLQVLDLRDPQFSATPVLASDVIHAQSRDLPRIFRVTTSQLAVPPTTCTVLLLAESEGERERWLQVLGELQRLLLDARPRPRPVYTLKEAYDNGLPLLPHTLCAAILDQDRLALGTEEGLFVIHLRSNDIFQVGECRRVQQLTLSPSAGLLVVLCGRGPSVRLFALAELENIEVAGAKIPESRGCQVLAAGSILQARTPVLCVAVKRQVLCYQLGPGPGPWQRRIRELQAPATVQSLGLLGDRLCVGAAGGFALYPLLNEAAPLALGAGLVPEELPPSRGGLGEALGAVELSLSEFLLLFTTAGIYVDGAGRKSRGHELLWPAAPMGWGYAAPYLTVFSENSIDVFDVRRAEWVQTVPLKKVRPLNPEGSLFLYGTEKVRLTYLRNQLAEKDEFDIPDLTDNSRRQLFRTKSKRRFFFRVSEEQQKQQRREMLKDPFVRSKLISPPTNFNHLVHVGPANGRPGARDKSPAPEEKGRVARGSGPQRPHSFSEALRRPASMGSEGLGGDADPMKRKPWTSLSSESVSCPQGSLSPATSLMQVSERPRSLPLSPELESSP
Method in brief: as §1

[3] = target: T3, 380 human recombinant protein kinases (Homo sapiens, UniProt Q9Y5S2); conditions: MRCKβ(h), read-out: Inhibition rate
T3 construct: purchased Eurofins (Celle Lévescault)
T3 sequence (Q9Y5S2 whole entry): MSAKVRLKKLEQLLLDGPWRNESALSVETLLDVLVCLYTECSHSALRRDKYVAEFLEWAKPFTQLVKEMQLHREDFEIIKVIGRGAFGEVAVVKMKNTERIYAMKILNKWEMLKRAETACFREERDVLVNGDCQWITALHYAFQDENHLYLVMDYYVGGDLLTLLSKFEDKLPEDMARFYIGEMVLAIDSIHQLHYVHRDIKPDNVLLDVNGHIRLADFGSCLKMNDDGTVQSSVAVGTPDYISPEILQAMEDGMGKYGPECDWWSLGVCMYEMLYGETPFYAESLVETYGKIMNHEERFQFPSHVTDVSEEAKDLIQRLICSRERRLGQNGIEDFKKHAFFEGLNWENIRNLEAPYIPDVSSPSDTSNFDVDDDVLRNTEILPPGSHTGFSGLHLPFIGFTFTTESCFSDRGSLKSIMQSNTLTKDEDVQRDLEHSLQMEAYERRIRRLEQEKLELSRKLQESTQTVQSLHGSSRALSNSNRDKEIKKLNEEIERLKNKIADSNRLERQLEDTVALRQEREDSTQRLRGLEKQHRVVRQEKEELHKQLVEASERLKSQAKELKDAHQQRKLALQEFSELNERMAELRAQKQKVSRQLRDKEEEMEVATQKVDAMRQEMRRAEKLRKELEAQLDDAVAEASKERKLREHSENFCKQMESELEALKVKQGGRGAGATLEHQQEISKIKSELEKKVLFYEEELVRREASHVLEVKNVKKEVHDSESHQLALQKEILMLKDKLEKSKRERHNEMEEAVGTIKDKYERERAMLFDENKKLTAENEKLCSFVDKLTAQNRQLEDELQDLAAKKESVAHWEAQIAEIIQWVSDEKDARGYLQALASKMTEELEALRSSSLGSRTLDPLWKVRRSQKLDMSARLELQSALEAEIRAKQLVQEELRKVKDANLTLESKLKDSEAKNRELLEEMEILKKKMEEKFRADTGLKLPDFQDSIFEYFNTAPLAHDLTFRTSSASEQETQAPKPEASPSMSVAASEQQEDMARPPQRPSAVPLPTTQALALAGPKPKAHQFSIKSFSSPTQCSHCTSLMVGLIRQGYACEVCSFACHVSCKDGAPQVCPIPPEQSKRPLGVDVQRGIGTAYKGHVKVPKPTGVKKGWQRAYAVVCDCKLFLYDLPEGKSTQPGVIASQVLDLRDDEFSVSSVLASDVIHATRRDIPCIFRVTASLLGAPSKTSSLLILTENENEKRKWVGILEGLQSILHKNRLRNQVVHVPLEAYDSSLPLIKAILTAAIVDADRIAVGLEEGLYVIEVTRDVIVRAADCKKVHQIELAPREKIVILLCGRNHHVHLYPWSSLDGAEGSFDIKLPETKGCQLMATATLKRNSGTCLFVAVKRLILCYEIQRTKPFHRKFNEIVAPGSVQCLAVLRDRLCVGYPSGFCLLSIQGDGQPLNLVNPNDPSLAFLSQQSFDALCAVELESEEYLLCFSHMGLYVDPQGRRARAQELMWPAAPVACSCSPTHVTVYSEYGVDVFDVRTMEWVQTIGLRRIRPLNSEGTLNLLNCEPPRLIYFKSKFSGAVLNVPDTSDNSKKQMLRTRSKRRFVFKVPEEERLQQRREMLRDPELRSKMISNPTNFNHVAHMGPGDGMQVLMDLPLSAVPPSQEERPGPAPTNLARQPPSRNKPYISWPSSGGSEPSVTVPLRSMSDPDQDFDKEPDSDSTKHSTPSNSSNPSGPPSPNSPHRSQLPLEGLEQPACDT
Method in brief: as §1

[4] = target: T4, 380 human recombinant protein kinases (Homo sapiens, UniProt P14616); conditions: IRR(h), read-out: Inhibition rate
T4 construct: purchased Eurofins (Celle Lévescault)
T4 sequence (P14616 27-1297): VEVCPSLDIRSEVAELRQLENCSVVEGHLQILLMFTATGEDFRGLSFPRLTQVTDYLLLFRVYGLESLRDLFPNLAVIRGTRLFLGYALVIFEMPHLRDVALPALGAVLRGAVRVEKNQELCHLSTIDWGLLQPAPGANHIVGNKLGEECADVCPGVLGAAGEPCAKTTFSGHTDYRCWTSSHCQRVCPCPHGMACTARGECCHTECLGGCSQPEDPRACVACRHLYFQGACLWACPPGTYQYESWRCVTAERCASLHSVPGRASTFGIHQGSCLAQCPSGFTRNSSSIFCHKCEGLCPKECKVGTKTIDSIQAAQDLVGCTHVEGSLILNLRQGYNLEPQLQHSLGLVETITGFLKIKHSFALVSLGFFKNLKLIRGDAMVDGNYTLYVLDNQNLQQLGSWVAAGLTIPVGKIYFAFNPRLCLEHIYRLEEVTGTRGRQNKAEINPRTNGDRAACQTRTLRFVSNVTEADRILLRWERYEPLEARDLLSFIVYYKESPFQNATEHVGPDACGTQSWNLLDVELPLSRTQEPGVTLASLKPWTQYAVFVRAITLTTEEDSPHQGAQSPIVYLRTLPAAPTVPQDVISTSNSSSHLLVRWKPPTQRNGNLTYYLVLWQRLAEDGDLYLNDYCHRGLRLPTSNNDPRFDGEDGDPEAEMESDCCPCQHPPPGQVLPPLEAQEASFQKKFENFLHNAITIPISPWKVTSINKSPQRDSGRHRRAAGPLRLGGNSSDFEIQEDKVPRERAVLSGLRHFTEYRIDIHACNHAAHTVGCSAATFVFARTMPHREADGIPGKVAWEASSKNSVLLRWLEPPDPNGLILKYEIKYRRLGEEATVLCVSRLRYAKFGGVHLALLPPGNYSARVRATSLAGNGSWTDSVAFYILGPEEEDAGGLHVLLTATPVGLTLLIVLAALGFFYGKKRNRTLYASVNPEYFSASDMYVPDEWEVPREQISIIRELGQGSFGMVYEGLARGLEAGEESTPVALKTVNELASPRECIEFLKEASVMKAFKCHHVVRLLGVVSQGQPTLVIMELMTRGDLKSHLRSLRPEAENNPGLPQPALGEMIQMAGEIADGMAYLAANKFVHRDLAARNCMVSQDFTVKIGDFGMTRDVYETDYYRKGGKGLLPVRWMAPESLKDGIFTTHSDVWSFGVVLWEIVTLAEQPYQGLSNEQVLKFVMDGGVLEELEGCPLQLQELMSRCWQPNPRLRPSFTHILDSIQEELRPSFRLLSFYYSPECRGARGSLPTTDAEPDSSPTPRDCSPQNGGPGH
Method in brief: as §1

[5] = target: T5, 380 human recombinant protein kinases (Homo sapiens, UniProt O14920); conditions: IKKβ(h), read-out: Inhibition rate
T5 construct: purchased Eurofins (Celle Lévescault)
T5 sequence (O14920 1-756): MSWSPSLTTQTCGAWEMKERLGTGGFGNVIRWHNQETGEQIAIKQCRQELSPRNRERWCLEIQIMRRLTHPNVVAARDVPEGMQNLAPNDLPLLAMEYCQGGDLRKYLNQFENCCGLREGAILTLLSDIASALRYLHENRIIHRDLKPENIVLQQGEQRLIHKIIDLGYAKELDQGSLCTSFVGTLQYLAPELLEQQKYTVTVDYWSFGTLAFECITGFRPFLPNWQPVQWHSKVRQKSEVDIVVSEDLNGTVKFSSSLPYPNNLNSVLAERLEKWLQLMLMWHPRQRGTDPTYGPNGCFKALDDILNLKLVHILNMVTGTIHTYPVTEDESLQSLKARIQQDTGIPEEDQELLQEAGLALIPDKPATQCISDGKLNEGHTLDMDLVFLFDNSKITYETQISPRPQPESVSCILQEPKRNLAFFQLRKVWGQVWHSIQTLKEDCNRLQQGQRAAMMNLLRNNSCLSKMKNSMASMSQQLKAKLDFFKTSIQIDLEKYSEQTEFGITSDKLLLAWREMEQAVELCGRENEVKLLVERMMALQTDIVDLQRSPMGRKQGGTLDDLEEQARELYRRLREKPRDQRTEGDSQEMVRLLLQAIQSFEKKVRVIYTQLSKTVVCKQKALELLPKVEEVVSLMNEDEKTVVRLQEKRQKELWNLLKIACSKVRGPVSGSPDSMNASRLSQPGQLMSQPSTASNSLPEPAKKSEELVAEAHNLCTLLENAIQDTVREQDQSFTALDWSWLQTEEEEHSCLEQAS
Method in brief: as §1

[6] = target: T6, 380 human recombinant protein kinases (Homo sapiens, UniProt Q9H0K1); conditions: SIK2(h), read-out: Inhibition rate (%)
T6 construct: purchased Eurofins (Celle Lévescault)
Method in brief: as §1

[7] = target: T7, 380 human recombinant protein kinases (Homo sapiens, UniProt P51956); conditions: NEK3(h), read-out: Inhibition rate
T7 construct: purchased Eurofins (Celle Lévescault)
T7 sequence (P51956 1-506): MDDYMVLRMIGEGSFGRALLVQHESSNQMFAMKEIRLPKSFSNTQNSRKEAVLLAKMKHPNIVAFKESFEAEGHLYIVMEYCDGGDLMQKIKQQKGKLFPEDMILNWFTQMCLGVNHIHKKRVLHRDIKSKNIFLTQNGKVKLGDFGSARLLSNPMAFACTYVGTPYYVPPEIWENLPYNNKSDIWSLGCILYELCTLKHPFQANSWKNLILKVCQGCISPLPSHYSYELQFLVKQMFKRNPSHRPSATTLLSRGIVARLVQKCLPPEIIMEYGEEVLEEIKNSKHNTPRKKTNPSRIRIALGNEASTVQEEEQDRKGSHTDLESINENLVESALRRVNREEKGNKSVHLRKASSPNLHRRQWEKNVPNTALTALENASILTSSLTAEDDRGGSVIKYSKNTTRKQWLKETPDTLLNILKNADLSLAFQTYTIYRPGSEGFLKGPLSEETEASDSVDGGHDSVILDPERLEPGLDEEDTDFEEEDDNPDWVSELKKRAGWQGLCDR
Method in brief: as §1

`C=CC(=O)Nc1cc(-c2cc(-c3cc4c([nH]3)CCNC4=O)ccn2)ccc1OC(F)(F)F` [compound 11] showed an inhibition at 0.01 µM ([1]; 10 nM) of 1%, an inhibition at 0.1 µM ([1]; 100 nM) of -2% and an inhibition at 1 µM ([1]; 1000 nM) of 3%. It also gave an inhibition at 0.01 µM ([2]; 10 nM) of -13%, an inhibition at 0.1 µM ([2]; 100 nM) of 2% and an inhibition at 1 µM ([2]; 1000 nM) of 12%. The inhibition at 0.01 µM ([3]; 10 nM) was 8%, the inhibition at 0.1 µM ([3]; 100 nM) was 0% and the inhibition at 1 µM ([3]; 1000 nM) was 10%. It also gave an inhibition at 0.01 µM ([4]; 10 nM) of 10%, an inhibition at 0.1 µM ([4]; 100 nM) of 33% and an inhibition at 1 µM ([4]; 1000 nM) of 61%. The inhibition at 0.01 µM ([5]; 10 nM) was -15%, the inhibition at 0.1 µM ([5]; 100 nM) was -12% and the inhibition at 1 µM ([5]; 1000 nM) was -12%. For the same molecule, the inhibition at 0.01 µM ([6]; 10 nM) was 2%, the inhibition at 0.1 µM ([6]; 100 nM) was 4% and the inhibition at 1 µM ([6]; 1000 nM) was 8%. For the same molecule, the inhibition at 0.01 µM ([7]; 10 nM) was -6%, the inhibition at 0.1 µM ([7]; 100 nM) was 0% and the inhibition at 1 µM ([7]; 1000 nM) was -1%.
